# Measurements reported in US20230159546A1, “NOVEL SPIROPYRROLIDINE DERIVED ANTIVIRAL AGENTS” (Enanta Pharmaceuticals, Inc., priority 2021, published 2023).
# Biological target: SARS-CoV-2 3CL-protease (Severe acute respiratory syndrome coronavirus 2, UniProt P0DTD1)
# Assay: SARS-CoV-2 3C-like (3CL) protease fluorescence assay (FRET)
# Type: biochemical
# Details: not given
row,SMILES,IC50 [nM]
1,CCOC(=O)N1C[C@]2(C[C@H]1C#N)C(=O)Nc1ccccc12 [Example 67],> 1000
2,N#C[C@@H]1C[C@@]2(CN1C(=O)Oc1ccccc1)C(=O)Nc1ccccc12 [Example 71],> 1000

# Same assay, conditions: recombinant SARS-CoV-2 3CL-protease 10 nM, 30 min preincubation at RT, duplicate; read-out: FRET IC50
row,SMILES,IC50 [nM]
1,N#C[C@@H]1C[C@@]2(CN1C(=O)c1cc3ccccc3[nH]1)C(=O)Nc1ccccc12 [Example 54],> 1000
2,N#C[C@@H]1C[C@@]2(CN1S(=O)(=O)c1ccccc1)C(=O)Nc1ccccc12 [Example 55],> 1000
3,N#C[C@@H]1C[C@@]2(CN1S(=O)(=O)c1ccc(F)cc1)C(=O)Nc1ccccc12 [Example 56],> 1000
4,CC(C)NS(=O)(=O)N1C[C@]2(C[C@H]1C#N)C(=O)Nc1ccccc12 [Example 57],> 1000
5,N#C[C@@H]1C[C@@]2(CN1S(=O)(=O)NC1CC1)C(=O)Nc1ccccc12 [Example 58],> 1000
6,N#C[C@@H]1C[C@@]2(CN1S(=O)(=O)NC1CCC1)C(=O)Nc1ccccc12 [Example 59],> 1000
7,N#C[C@@H]1C[C@@]2(CN1S(=O)(=O)NC1CCCC1)C(=O)Nc1ccccc12 [Example 60],> 1000
8,N#C[C@@H]1C[C@@]2(CN1S(=O)(=O)NC1CCCCC1)C(=O)Nc1ccccc12 [Example 61],> 1000
9,N#C[C@@H]1C[C@@]2(CN1S(=O)(=O)Nc1ccc(F)cc1)C(=O)Nc1ccccc12 [Example 62],> 1000
10,N#C[C@@H]1C[C@@]2(CN1S(=O)(=O)NCc1nccs1)C(=O)Nc1ccccc12 [Example 63],> 1000
11,CC(C)CN1C[C@]2(C[C@H]1C#N)C(=O)Nc1ccccc12 [Example 64],> 1000
12,CC(C)CN1C[C@]2(C[C@@H]1C#N)C(=O)Nc1ccccc12 [Example 65],> 1000
13,N#C[C@@H]1C[C@@]2(CN1CC1CC1)C(=O)Nc1ccccc12 [Example 66],> 1000
14,CC(C)OC(=O)N1C[C@]2(C[C@H]1C#N)C(=O)Nc1ccccc12 [Example 68],> 1000
15,N#C[C@@H]1C[C@@]2(CN1C(=O)OC1CC1)C(=O)Nc1ccccc12 [Example 69],> 1000
16,N#C[C@@H]1C[C@@]2(CN1C(=O)OC1CCCC1)C(=O)Nc1ccccc12 [Example 70],> 1000
17,N#C[C@@H]1C[C@@]2(CN1C(=O)OCc1ccccc1)C(=O)Nc1ccccc12 [Example 72],100 to 1000
18,N#C[C@@H]1C[C@@]2(CN1C(=O)C(=O)Nc1ccccc1)C(=O)Nc1ccccc12 [Example 73],> 1000
19,CC(C)(C(=O)NC1CCCCC1)C(=O)N1C[C@]2(C[C@H]1C#N)C(=O)Nc1ccccc12 [Example 74],> 1000
20,N#C[C@@H]1C[C@@]2(CN1C(=O)C1(C(=O)Nc3ccccc3)CC1)C(=O)Nc1ccccc12 [Example 75],> 1000
21,N#C[C@@H]1C[C@@]2(CN1S(=O)(=O)Nc1ccc3cccnc3c1)C(=O)Nc1ccccc12 [Example 76],> 1000
22,N#C[C@@H]1C[C@@]2(CN1C(=O)OC1CCCCC1)C(=O)Nc1ccccc12 [Example 77],> 1000
23,N#C[C@@H]1C[C@@]2(CN1C(=O)C(=O)NC1CC1)C(=O)Nc1ccccc12 [Example 78],> 1000
24,N#C[C@@H]1C[C@@]2(CN1C(=O)C(=O)NC1CCCCC1)C(=O)Nc1ccccc12 [Example 79],100 to 1000
25,N#C[C@@H]1C[C@@]2(CN1C(=O)C(=O)NCc1ccccc1)C(=O)Nc1ccccc12 [Example 80],100 to 1000

row,SMILES,IC50 [nM]
1,N#C[C@@H]1C[C@@]2(CN1C(=O)C(=O)NCc1nccs1)C(=O)Nc1ccccc12 [Example 81],> 1000
2,CC(C)NC(=O)C(C)(C)C(=O)N1C[C@]2(C[C@H]1C#N)C(=O)Nc1ccccc12 [Example 82],> 1000
3,CC(C)(C(=O)NC1CC1)C(=O)N1C[C@]2(C[C@H]1C#N)C(=O)Nc1ccccc12 [Example 83],> 1000
4,CC(C)(C(=O)Nc1ccccc1)C(=O)N1C[C@]2(C[C@H]1C#N)C(=O)Nc1ccccc12 [Example 84],> 1000
5,N#C[C@@H]1C[C@@]2(CN1S(=O)(=O)Nc1ccccc1)C(=O)Nc1ccccc12 [Example 85],> 1000
6,N#C[C@@H]1C[C@@]2(CN1C(=O)OCc1nccs1)C(=O)Nc1ccccc12 [Example 86],> 1000
7,N#C[C@@H]1C[C@@]2(CN1C(=O)OCn1cccn1)C(=O)Nc1ccccc12 [Example 87],> 1000
8,CCNC(=O)C(=O)N1C[C@]2(C[C@H]1C#N)C(=O)Nc1ccccc12 [Example 88],> 1000
9,CC(C)NC(=O)C(=O)N1C[C@]2(C[C@H]1C#N)C(=O)Nc1ccccc12 [Example 89],> 1000
10,N#C[C@@H]1C[C@@]2(CN1C(=O)C(=O)NC1CCCC1)C(=O)Nc1ccccc12 [Example 90],100 to 1000
11,N#C[C@@H]1C[C@@]2(CN1C(=O)C(=O)Nc1ccc3cccnc3c1)C(=O)Nc1ccccc12 [Example 91],> 1000
12,N#C[C@@H]1C[C@@]2(CN1C(=O)C(Cc1ccccc1)C(=O)C1CC1)C(=O)Nc1ccccc12 (some centres unmarked) [Example 92],100 to 1000
13,N#C[C@@H]1C[C@@]2(CN1C(=O)C(Cc1ccccc1)C(=O)C1CCCCC1)C(=O)Nc1ccccc12 (some centres unmarked) [Example 93],> 1000
14,N#C[C@@H]1C[C@@]2(CN1C(=O)[C@H](Cc1ccccc1)C(=O)c1ccccc1)C(=O)Nc1ccccc12 [Example 94],> 1000
15,N#C[C@@H]1C[C@@]2(CN1C(=O)[C@@H](Cc1ccccc1)C(=O)c1ccccc1)C(=O)Nc1ccccc12 [Example 95],> 1000
16,CC(C)(C(=O)C1CC1)C(=O)N1C[C@]2(C[C@H]1C#N)C(=O)Nc1ccccc12 [Example 100],> 1000
17,CC(C)(C(=O)C1CCCCC1)C(=O)N1C[C@]2(C[C@H]1C#N)C(=O)Nc1ccccc12 [Example 101],> 1000
18,N#C[C@@H]1C[C@@]2(CN1C(=O)C1(C(=O)c3ccccc3)CC1)C(=O)Nc1ccccc12 [Example 102],> 1000
19,CC(C)(C(=O)c1ccccc1)C(=O)N1C[C@]2(C[C@H]1C#N)C(=O)Nc1ccccc12 [Example 111],> 1000
20,N#C[C@@H]1C[C@@]2(CN1C(=O)C(=O)OC1CCCC1)C(=O)Nc1ccccc12 [Example 112],> 1000
21,N#C[C@@H]1C[C@@]2(CN1C(=O)C(=O)OC1CCCCC1)C(=O)Nc1ccccc12 [Example 113],100 to 1000
22,CC(C)NC(=O)[C@@H](Cc1ccccc1)C(=O)N1C[C@]2(C[C@H]1C#N)C(=O)Nc1ccccc12 [Example 114],100 to 1000
23,CC(C)NC(=O)[C@H](Cc1ccccc1)C(=O)N1C[C@]2(C[C@H]1C#N)C(=O)Nc1ccccc12 [Example 115],> 1000
24,N#C[C@@H]1C[C@@]2(CN1C(=O)[C@H](Cc1ccccc1)C(=O)NC1CC1)C(=O)Nc1ccccc12 [Example 116],100 to 1000
25,N#C[C@@H]1C[C@@]2(CN1C(=O)[C@@H](Cc1ccccc1)C(=O)NC1CC1)C(=O)Nc1ccccc12 [Example 117],> 1000

row,SMILES,IC50 [nM]
1,N#C[C@@H]1C[C@@]2(CN1C(=O)[C@H](Cc1ccccc1)C(=O)NC1CCCCC1)C(=O)Nc1ccccc12 [Example 118],100 to 1000
2,N#C[C@@H]1C[C@@]2(CN1C(=O)[C@@H](Cc1ccccc1)C(=O)NC1CCCCC1)C(=O)Nc1ccccc12 [Example 119],> 1000
3,N#C[C@@H]1C[C@@]2(CN1C(=O)[C@H](Cc1ccccc1)C(=O)Nc1ccccc1)C(=O)Nc1ccccc12 [Example 120],100 to 1000
4,N#C[C@@H]1C[C@@]2(CN1C(=O)[C@@H](Cc1ccccc1)C(=O)Nc1ccccc1)C(=O)Nc1ccccc12 [Example 121],> 1000
5,CC(C)S(=O)(=O)N1C[C@]2(C[C@H]1C#N)C(=O)Nc1ccccc12 [Example 122],> 1000
6,CCOC(=O)C(=O)N1C[C@]2(C[C@H]1C#N)C(=O)Nc1ccccc12 [Example 123],> 1000
7,CC(C)OC(=O)C(=O)N1C[C@]2(C[C@H]1C#N)C(=O)Nc1ccccc12 [Example 124],> 1000
8,N#C[C@@H]1C[C@@]2(CN1C(=O)C(=O)OC1CC1)C(=O)Nc1ccccc12 [Example 125],> 1000
9,N#C[C@@H]1C[C@@]2(CN1C(=O)C(=O)OCc1ccccc1)C(=O)Nc1ccccc12 [Example 126],> 1000
10,N#C[C@@H]1C[C@@]2(CN1C(=O)C(=O)OCc1nccs1)C(=O)Nc1ccccc12 [Example 127],> 1000
11,N#C[C@@H]1C[C@@]2(CN1S(=O)(=O)C1CCCC1)C(=O)Nc1ccccc12 [Example 128],> 1000
12,N#C[C@@H]1C[C@@]2(CN1S(=O)(=O)C1CCCCC1)C(=O)Nc1ccccc12 [Example 129],> 1000
13,N#C[C@@H]1C[C@@]2(CN1C(=O)NCc1cc3ccccc3[nH]1)C(=O)Nc1ccccc12 [Example 130],> 1000
14,N#C[C@@H]1C[C@@]2(CN1C(=O)NCCc1cc3ccccc3[nH]1)C(=O)Nc1ccccc12 [Example 131],> 1000
15,CC(C)C(=O)NN1C[C@]2(C[C@H]1C#N)C(=O)Nc1ccccc12 [Example 139],> 1000
16,N#C[C@@H]1C[C@@]2(CN1NC(=O)C1CC1)C(=O)Nc1ccccc12 [Example 140],> 1000
17,N#C[C@@H]1C[C@@]2(CN1NC(=O)C1CCCCC1)C(=O)Nc1ccccc12 [Example 141],> 1000
18,N#C[C@@H]1C[C@@]2(CN1NC(=O)c1ccccc1)C(=O)Nc1ccccc12 [Example 142],> 1000
19,CC1(C)CCC(NC(=O)C(=O)N2C[C@]3(C[C@H]2C#N)C(=O)Nc2ccccc23)CC1 [Example 143],> 1000
20,N#C[C@@H]1C[C@@]2(CN1C(=O)C(=O)N[C@H]1CC[C@@H](NC(=O)OCc3ccccc3)CC1)C(=O)Nc1ccccc12 [Example 145],> 1000
21,N#C[C@@H]1C[C@@]2(CN1C(=O)C(=O)N[C@H]1CCC(F)(F)C1)C(=O)Nc1ccccc12 [Example 146],100 to 1000
22,CC(C)(C)OC(=O)N[C@@H]1CCC[C@@H]1NC(=O)C(=O)N1C[C@]2(C[C@H]1C#N)C(=O)Nc1ccccc12 [Example 147],100 to 1000
23,N#C[C@@H]1C[C@@]2(CN1C(=N)C1CC1)C(=O)Nc1ccccc12 [Example 148],> 1000
24,N#C[C@@H]1C[C@@]2(CN1C(=O)C(=O)N[C@H]1CC[C@H](C(F)(F)F)CC1)C(=O)Nc1ccccc12 [Example 149],> 1000
25,CC(C)(C)OC(=O)N[C@H]1CC[C@@H](NC(=O)C(=O)N2C[C@]3(C[C@H]2C#N)C(=O)Nc2ccccc23)CC1 [Example 150],> 1000
